Source: US20160081978A1, “PHARMACEUTICAL COMPOSITION CONTAINING LIRIODENDRON TULIPIFERA L. EXTRACT FOR TREATING CHRONIC MYELOGENOUS LEUKEMIA” (CHO DANG PHARM. CO., LTD., priority 2013, published 2016)

What was measured:
Experiment in all cases: XTT cell viability assay, inhibition of multiplication of leukemia cell line
Format in all cases: cell-based
Ba/F3 mother cell line = conditions: 1 mg/ml of CD-200, 1 μM of CD-EPT, 48 hours
Experimental: (§1) For measuring the cell viability indicating the inhibition of multiplication, in vitro XTT assay has been employed. […] To find out the selective inhibition of T315I enzyme variant from BCR-ABL fusion gene, the cell lines have been incubated for 48 hours at 37° C. After incubation, the sample has been treated with XTT formazan (WEL GENE) for 4 hours at 37° C. Finally, the cell viability has been measured using ELISA through the absorbance at 620 nm, 540 nm (FIG. 1).

Ba/F3(BCR/ABL) cell line = conditions: 1 mg/ml of CD-200, 1 μM of CD-EPT, 48 hours
Experimental: as §1

[1] = tested on: Ba/F3 (BCR/ABL-T315I) cell line
Excerpt: For measuring the cell viability indicating the inhibition of multiplication, in vitro XTT assay has been employed. […] Finally, the cell viability has been measured using ELISA through the absorbance at 620 nm, 540 nm (FIG. 1).

## C=C1C(=O)O[C@@H]2/C=C(\C)CC/C=C(\C)C[C@@H](OC(C)=O)[C@@H]12 [CD-EPT, epi-tulipinolide]
Ba/F3 mother cell line
  inhibition of cell growth (cell viability): effectively inhibit the cell growth
Ba/F3(BCR/ABL) cell line
  inhibition of cell growth (cell viability): cannot significantly inhibit the cell growth
[1]; 1 μM of Imatinib, 1 mg/ml of CD-200, 1 μM of CD-EPT, Ba/F3 (BCR/ABL-T315I) cell line
  inhibition of cell growth compared to Imatinib: effective inhibition of cell growth compared to Imatinib
[1]; 1 mg/ml of CD-200, 1 μM of CD-EPT, 48 hours, XTT, Ba/F3 (BCR/ABL-T315I) cell line
  inhibition of cell growth (cell viability): effectively inhibit the cell growth
[1]; Ba/F3 (BCR/ABL-T315I) mutant, XTT, 48 hours
  IC50: 0.8 µM
[1]; Ba/F3 (BCR/ABL-T315I) mutant, from IC50 values
  effective inhibition capability compared to Imatinib: 5 times
